From patent US20260166159A1, “KRAS G12D DEGRADATION AGENT, AND PREPARATION METHOD AND USE THEREFOR” (LEADINGTAC PHARMACEUTICAL (SHAOXING) CO., LTD., priority 2022, published 2026)
pIC50: −log10 of the molar value.

Key:
[1] = tested on: KRAS G12D mutant human lung cancer cell A427; test: 3D cell proliferation inhibition assay, A427; format: cell-based; settings: A-427, 168 h, A427, 7 days, CTG
In short: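 A 7-day 3D growth at 37 °C, 5% CO2, 5×10^2 cells/well, with final compound concentrations of 10000–0.026 nM and 0.2% DMSO. Read-out: CTG luminescence (60 min, room temperature); % inhibition against DMSO-treated cells and medium blank, fitted versus log concentration to give IC50.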

[2] = molecular target: T1, Human KRAS G12D 6His-tagged (Homo sapiens, UniProt P01116, G12D); test: KRAS-G12D/GTP binding assay (HTRF)
T1 construct: purchased PerkinElmer
In short: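 Compounds at 0.02-5000 nM final (0.5% DMSO) were tested for blocking GTP Red tracer binding to His-tagged KRAS G12D, detected by Eu-cryptate anti-His antibody after 1 h, 25° C. Inhibition taken from 665/620 nm ratio relative to control, then fitted to give IC50.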

T1 sequence (P01116 1-188 isoform P01116-2 G12D): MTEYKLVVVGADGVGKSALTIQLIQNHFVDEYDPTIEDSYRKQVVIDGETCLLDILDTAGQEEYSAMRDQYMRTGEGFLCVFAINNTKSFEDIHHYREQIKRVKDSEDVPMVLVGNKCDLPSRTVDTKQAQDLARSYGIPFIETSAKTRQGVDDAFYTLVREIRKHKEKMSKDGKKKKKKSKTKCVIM

Compound | pIC50 ([1]; class symbols) | pIC50 ([2]; class symbols) | pIC50 ([1]; numeric values) | pIC50 ([2]; numeric values)
C#Cc1c(F)ccc2cc(O)cc(-c3ncc4c(N5CC6CCC(C5)N6)nc(OCC5(CN6CCN(CC7CCC8(CC7)CCN(C(=O)c7ccc(OC)c(N9CCC(=O)NC9=O)c7)CC8)CC6)CC5)nc4c3F)c12 [Example 14, 1-(5-(9-((4-((1-(((4-(3,8-diazabicyclo[3.2.1]octan-3-yl)-7-(8-ethynyl-7-fluoro-3-hydroxynaphthalen-1-yl)-8-fluoropyrido[4,3-d]pyrimidin-2-yl)oxy)methyl)cyclopropyl)methyl)piperazin-1-yl)methyl)-3-azaspiro[5.5]undecane-3-carbonyl)-2-methoxyphenyl)dihydropyrimidine-2,4(1H,3H)-dione] | ≥ 7.30 | ≥ 7.30 |  | 
C#Cc1c(F)ccc2cc(O)cc(-c3ncc4c(N5CC6CCC(C5)N6)nc(OCC5(CN6CCN(CC7CCC8(CC7)CCN(C(=O)c7ccc(C)c(N9CCC(=O)NC9=O)c7)CC8)CC6)CC5)nc4c3F)c12 [Example 36, 1-(5-(9-((4-((1-(((4-(3,8-diazabicyclo[3.2.1]octan-3-yl)-7-(8-ethynyl-7-fluoro-3-hydroxynaphthalen-1-yl)-8-fluoropyrido[4,3-d]pyrimidin-2-yl)oxy)methyl)cyclopropyl)methyl)piperazin-1-yl)methyl)-3-azaspiro[5.5]undecane-3-carbonyl)-2-methylphenyl)dihydropyrimidine-2,4(1H,3H)-dione] | ≥ 7.30 | ≥ 7.30 |  | 
C#Cc1c(F)ccc2cc(O)cc(-c3ncc4c(N5CC6CCC(C5)N6)nc(OCC5(CN6CCN(CCCC7CCN(C(=O)c8ccc(OC)c(N9CCC(=O)NC9=O)c8)CC7)CC6)CC5)nc4c3F)c12 [Example 8, 1-(5-(4-(3-(4-((1-(((4-(3,8-diazabicyclo[3.2.1]octan-3-yl)-7-(8-ethynyl-7-fluoro-3-hydroxynaphthalen-1-yl)-8-fluoropyrido[4,3-d]pyrimidin-2-yl)oxy)methyl)cyclopropyl)methyl)piperazin-1-yl)propyl)piperidine-1-carbonyl)-2-methoxyphenyl)dihydropyrimidine-2,4(1H,3H)-dione] | 7.00 to 7.30 | ≥ 7.30 |  | 
C#Cc1c(F)ccc2cc(O)cc(-c3ccc4c(N5CC6CCC(C5)N6)nc(OCC5(CN6CCN(CC7CCC8(CC7)CCN(C(=O)c7ccc(C)c(N9CCC(=O)NC9=O)c7)CC8)CC6)CC5)nc4c3F)c12 [Example 42, 1-(5-(9-((4-((1-(((4-(3,8-diazabicyclo[3.2.1]octan-3-yl)-7-(8-ethynyl-7-fluoro-3-hydroxynaphthalen-1-yl)-8-fluoroquinazolin-2-yl)oxy)methyl)cyclopropyl)methyl)piperazin-1-yl)methyl)-3-azaspiro[5.5]undecane-3-carbonyl)-2-methylphenyl)dihydropyrimidine-2,4(1H,3H)-dione] | ≥ 7.30 | ≥ 7.30 |  | 
CCc1cccc2cc(O)cc(-c3ncc4c(N5CC6CCC(C5)N6)nc(OCC5(CN6CCN(CC7CCC8(CC7)CCN(C(=O)c7ccc(OC)c(N9CCC(=O)NC9=O)c7)CC8)CC6)CC5)nc4c3F)c12 [Example 20, 1-(5-(9-((4-((1-(((4-(3,8-diazabicyclo[3.2.1]octan-3-yl)-7-(8-ethyl-3-hydroxynaphthalen-1-yl)-8-fluoropyrido[4,3-d]pyrimidin-2-yl)oxy)methyl)cyclopropyl)methyl)piperazin-1-yl)methyl)-3-azaspiro[5.5]undecane-3-carbonyl)-2-methoxyphenyl)dihydropyrimidine-2,4(1H,3H)-dione] | ≥ 7.30 | ≥ 7.30 |  | 
C#Cc1c(F)ccc2cc(O)cc(-c3ncc4c(N5CC6CCC(C5)N6)nc(OCC5(CN6CCN(CC7CCC8(CC7)CCN(C(=O)c7ccc(Br)c(N9CCC(=O)NC9=O)c7)CC8)CC6)CC5)nc4c3F)c12 [Example 29, 1-(5-(9-((4-((1-(((4-(3,8-diazabicyclo[3.2.1]octan-3-yl)-7-(8-ethynyl-7-fluoro-3-hydroxynaphthalen-1-yl)-8-fluoropyrido[4,3-d]pyrimidin-2-yl)oxy)methyl)cyclopropyl)methyl)piperazin-1-yl)methyl)-3-azaspiro[5.5]undecane-3-carbonyl)-2-bromophenyl)dihydropyrimidine-2,4(1H,3H)-dione] | ≥ 7.30 | ≥ 7.30 |  | 
CCc1c(F)ccc2cc(O)cc(-c3ncc4c(N5CC6CCC(C5)N6)nc(OCC5(CN6CCN(CC7CCC8(CC7)CCN(C(=O)c7ccc(OC)c(N9CCC(=O)NC9=O)c7)CC8)CC6)CC5)nc4c3F)c12 [Example 15, 1-(5-(9-((4-((1-(((4-(3,8-diazabicyclo[3.2.1]octan-3-yl)-7-(8-ethyl-7-fluoro-3-hydroxynaphthalen-1-yl)-8-fluoropyrido[4,3-d]pyrimidin-2-yl)oxy)methyl)cyclopropyl)methyl)piperazin-1-yl)methyl)-3-azaspiro[5.5]undecane-3-carbonyl)-2-methoxyphenyl)dihydropyrimidine-2,4(1H,3H)-dione] | ≥ 7.30 | ≥ 7.30 |  | 
C#Cc1c(F)ccc2cc(O)cc(-c3ncc4c(N5CC6CCC(C5)N6)nc(OCC5(CN6CCN(CCCCC7CCC8(CC7)CCN(C(=O)c7ccc(Cl)c(N9CCC(=O)NC9=O)c7)CC8)CC6)CC5)nc4c3F)c12 [Example 31, 1-(5-(9-(4-(4-((1-(((4-(3,8-diazabicyclo[3.2.1]octan-3-yl)-7-(8-ethynyl-7-fluoro-3-hydroxynaphthalen-1-yl)-8-fluoropyrido[4,3-d]pyrimidin-2-yl)oxy)methyl)cyclopropyl)methyl)piperazin-1-yl)butyl)-3-azaspiro[5.5]undecane-3-carbonyl)-2-chlorophenyl)dihydropyrimidine-2,4(1H,3H)-dione] | ≥ 7.30 | ≥ 7.30 |  | 
C#Cc1c(F)ccc2cc(O)cc(-c3ncc4c(N5CC6CCC(C5)N6)nc(OCC(C)(C)CN5CCN(CC6CCC7(CC6)CCN(C(=O)c6ccc(OC)c(N8CCC(=O)NC8=O)c6)CC7)CC5)nc4c3F)c12 [Example 26, 1-(5-(9-((4-(3-((4-(3,8-diazabicyclo[3.2.1]octan-3-yl)-7-(8-ethynyl-7-fluoro-3-hydroxynaphthalen-1-yl)-8-fluoropyrido[4,3-d]pyrimidin-2-yl)oxy)-2,2-dimethylpropyl)piperazin-1-yl)methyl)-3-azaspiro[5.5]undecane-3-carbonyl)-2-methoxyphenyl)dihydropyrimidine-2,4(1H,3H)-dione] | 7.00 to 7.30 | 7.00 to 7.30 |  | 
C#Cc1c(F)ccc2cc(O)cc(-c3ncc4c(N5CC6CCC(C5)N6)nc(OCC(C)CN5CCN(CC6CCC7(CC6)CCN(C(=O)c6ccc(OC)c(N8CCC(=O)NC8=O)c6)CC7)CC5)nc4c3F)c12 (stereo not shown) [Example 84, 1-(5-(9-((4-(3-((4-(3,8-diazabicyclo[3.2.1]octan-3-yl)-7-(8-ethynyl-7-fluoro-3-hydroxynaphthalen-1-yl)-8-fluoropyrido[4,3-d]pyrimidin-2-yl)oxy)-2-methylpropyl)piperazin-1-yl)methyl)-3-azaspiro[5.5]undecane-3-carbonyl)-2-methoxyphenyl)dihydropyrimidine-2,4(1H,3H)-dione] |  |  | 8.19 | 8.61
CCc1c(F)ccc2cc(O)cc(-c3ncc4c(N5CC6CCC(C5)N6)nc(OCC5(CN6CCN(CCCC7CCN(C(=O)c8ccc(Cl)c(N9CCC(=O)NC9=O)c8)CC7)CC6)CC5)nc4c3F)c12 [Example 22, 1-(5-(4-(3-(4-((1-(((4-(3,8-diazabicyclo[3.2.1]octan-3-yl)-7-(8-ethyl-7-fluoro-3-hydroxynaphthalen-1-yl)-8-fluoropyrido[4,3-d]pyrimidin-2-yl)oxy)methyl)cyclopropyl)methyl)piperazin-1-yl)propyl)piperidine-1-carbonyl)-2-chlorophenyl)dihydropyrimidine-2,4(1H,3H)-dione] | 7.00 to 7.30 | ≥ 7.30 |  | 
C#Cc1c(F)ccc2cc(O)cc(-c3ncc4c(N5CC6CCC(C5)N6)nc(OCC5(CN6CCN(CCCC7CCC8(CC7)CCN(C(=O)c7ccc(Cl)c(N9CCC(=O)NC9=O)c7)CC8)CC6)CC5)nc4c3F)c12 [Example 7, 1-(5-(9-(3-(4-((1-(((4-(3,8-diazabicyclo[3.2.1]octan-3-yl)-7-(8-ethynyl-7-fluoro-3-hydroxynaphthalen-1-yl)-8-fluoropyrido[4,3-d]pyrimidin-2-yl)oxy)methyl)cyclopropyl)methyl)piperazin-1-yl)propyl)-3-azaspiro[5.5]undecane-3-carbonyl)-2-chlorophenyl)dihydropyrimidine-2,4(1H,3H)-dione] | ≥ 7.30 | ≥ 7.30 |  | 
C#Cc1c(F)ccc2cc(O)cc(-c3ncc4c(N5CC6CCC(C5)N6)nc(OCC5(CN6CCN(CCC7CCC8(CC7)CCN(C(=O)c7ccc(Cl)c(N9CCC(=O)NC9=O)c7)CC8)CC6)CC5)nc4c3F)c12 [Example 18, 1-(5-(9-(2-(4-((1-(((4-(3,8-diazabicyclo[3.2.1]octan-3-yl)-7-(8-ethynyl-7-fluoro-3-hydroxynaphthalen-1-yl)-8-fluoropyrido[4,3-d]pyrimidin-2-yl)oxy)methyl)cyclopropyl)methyl)piperazin-1-yl)ethyl)-3-azaspiro[5.5]undecane-3-carbonyl)-2-chlorophenyl)dihydropyrimidine-2,4(1H,3H)-dione] | ≥ 7.30 | ≥ 7.30 |  | 
Cc1ccc2[nH]ncc2c1-c1ncc2c(N3CC4CCC(C3)N4)nc(OCC3(CN4CCN(CC5CCC6(CC5)CCN(C(=O)c5ccc(Cl)c(N7CCC(=O)NC7=O)c5)CC6)CC4)CC3)nc2c1F [Example 16, 1-(5-(9-((4-((1-(((4-(3,8-diazabicyclo[3.2.1]octan-3-yl)-8-fluoro-7-(5-methyl-1H-indazol-4-yl)pyrido[4,3-d]pyrimidin-2-yl)oxy)methyl)cyclopropyl)methyl)piperazin-1-yl)methyl)-3-azaspiro[5.5]undecane-3-carbonyl)-2-chlorophenyl)dihydropyrimidine-2,4(1H,3H)-dione] | 6.30 to 7.00 | 5.00 to 6.00 |  | 
